Experiments:
PARP7 enzyme = PARP7 enzyme (Homo sapiens (Human), UniProt Q7Z3E1); experiment: PARP7 enzymatic experiment (HTRF assay); format: biochemical; conditions: 4PL fit
[1] = test system: lung cancer cell line H1373 (high expression of PARP7); experiment: Lung cancer cell proliferation inhibition experiment (CTG method); format: cell-based; conditions: H1373 cells, 144 hrs incubation, Cell Titer Glo

Sequence of PARP7 enzyme (Q7Z3E1 456-657): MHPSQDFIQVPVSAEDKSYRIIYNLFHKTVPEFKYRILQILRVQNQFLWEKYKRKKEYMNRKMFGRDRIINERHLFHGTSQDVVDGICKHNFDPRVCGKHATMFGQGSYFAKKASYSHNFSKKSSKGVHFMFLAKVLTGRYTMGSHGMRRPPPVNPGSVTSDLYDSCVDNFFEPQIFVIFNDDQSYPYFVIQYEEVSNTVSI

| Structure (SMILES) | IC50 (PARP7 enzyme) | IC50 [1] | IC50 ([1]; Homo sapiens, NCI-H1373, 144 h) |
| --- | --- | --- | --- |
| C[C@H]1C[C@@H]2CN(C(=O)CCOC[C@@H]3CCN3c3cn[nH]c(=O)c3C(F)(F)F)CCN2c2ncc(C(F)(F)F)cc21 (single isomer, unassigned) [Compound 94C] | 0.0021 µM | 0.00703 µM | – |
| C[C@H]1C[C@H]2CN(C(=O)CCOC[C@@H]3CCN3c3cn[nH]c(=O)c3C(F)(F)F)CCN2c2ncc(C(F)(F)F)cc21 (single isomer, unassigned) [Compound 94D] | 0.00355 µM | 0.0158 µM | – |
| COc1ccc(Cn2ncc(N3CC(C)(C)[C@H]3COCCC(=O)N3CCN4c5ncc(C(F)(F)F)cc5N(C)C(=O)[C@@H]4C3)c(C(F)(F)F)c2=O)cc1 (single isomer, unassigned) [Compound 95A] | 0.00357 µM | 0.0399 µM | – |
| COc1ccc(Cn2ncc(N3CC(C)(C)[C@H]3COCCC(=O)N3CCN4c5ncc(C(F)(F)F)cc5N(C)C(=O)[C@H]4C3)c(C(F)(F)F)c2=O)cc1 (single isomer, unassigned) [Compound 95B] | 0.00588 µM | 0.0485 µM | – |
| CN1C(=O)[C@@H]2CN(C(=O)CCOC[C@@H]3CCCN3c3cn[nH]c(=O)c3C(F)(F)F)CCN2c2ncc(C(F)(F)F)cc21 (single isomer, unassigned) [Compound 98A] | 0.00125 µM | 0.0555 µM | – |
| CN1C(=O)[C@H]2CN(C(=O)CCOC[C@@H]3CCCN3c3cn[nH]c(=O)c3C(F)(F)F)CCN2c2ncc(C(F)(F)F)cc21 (single isomer, unassigned) [Compound 98B] | 0.00136 µM | 0.0371 µM | – |
| CC(=O)c1c(N[C@@H](C)COCCC(=O)N2CCN3c4ncc(C(F)(F)F)cc4N(C)C(=O)[C@@H]3C2)cn[nH]c1=O [Compound 13A] | 0.00136 µM | – | 0.0357 µM |
| CC(=O)c1c(N[C@@H](C)COCCC(=O)N2CCN3c4ncc(C(F)(F)F)cc4N(C)C(=O)[C@H]3C2)cn[nH]c1=O [Compound 13B] | 0.00173 µM | – | 0.0522 µM |
| CC[C@@H](COCCC(=O)N1CCN2c3ncc(C(F)(F)F)cc3N(C)C(=O)[C@@H]2C1)Nc1cn[nH]c(=O)c1C(F)(F)F [Compound 15A] | 0.00193 µM | – | 0.0824 µM |
| CC[C@@H](COCCC(=O)N1CCN2c3ncc(C(F)(F)F)cc3N(C)C(=O)[C@H]2C1)Nc1cn[nH]c(=O)c1C(F)(F)F [Compound 15B] | 0.00286 µM | – | 0.187 µM |
| C[C@@H](COCCC(=O)N1CCN2c3ncc(F)cc3N(C)C(=O)[C@H]2C1)Nc1cn[nH]c(=O)c1C(F)(F)F [Compound 19B] | 0.00275 µM | – | 0.221 µM |
| C[C@@H](COCCC(=O)N1CCN2c3ncc(Br)cc3N(C)C(=O)[C@@H]2C1)Nc1cn[nH]c(=O)c1C(F)(F)F [Compound 21A] | 0.000424 µM | – | 0.0809 µM |
| C[C@@H](COCCC(=O)N1CCN2c3ncc(Br)cc3N(C)C(=O)[C@H]2C1)Nc1cn[nH]c(=O)c1C(F)(F)F [Compound 21B] | 0.000812 µM | – | 0.0436 µM |
| CCN1C(=O)[C@@H]2CN(C(=O)CCOC[C@H](C)Nc3cn[nH]c(=O)c3C(F)(F)F)CCN2c2ncc(Cl)cc21 [Compound 22A] | 0.000846 µM | – | 0.139 µM |
| CCN1C(=O)[C@H]2CN(C(=O)CCOC[C@H](C)Nc3cn[nH]c(=O)c3C(F)(F)F)CCN2c2ncc(Cl)cc21 [Compound 22B] | 0.000969 µM | – | 0.0641 µM |
| CCN1C(=O)[C@H]2CN(C(=O)CCOC[C@H](C)Nc3cn[nH]c(=O)c3C(F)(F)F)CCN2c2ncc(Br)cc21 [Compound 23B] | 0.000863 µM | – | 0.0461 µM |
| COC[C@@H](COCCC(=O)N1CCN2c3ncc(C(F)(F)F)cc3N(C(C)C)C(=O)[C@@H]2C1)Nc1cn[nH]c(=O)c1C(F)(F)F [Compound 25A] | 0.00372 µM | – | 0.0381 µM |
| COC[C@@H](COCCC(=O)N1CCN2c3ncc(C(F)(F)F)cc3N(C(C)C)C(=O)[C@H]2C1)Nc1cn[nH]c(=O)c1C(F)(F)F [Compound 25B] | 0.00536 µM | – | 0.0534 µM |
| CC(=O)c1c(N[C@@H](C)COCCC(=O)N2CCN3c4ncc(C(F)(F)F)cc4N(C4CC4)C(=O)C3C2)cn[nH]c1=O (some centres unmarked) [Compound 27] | 0.00698 µM | – | 0.441 µM |

| Structure (SMILES) | IC50 (PARP7 enzyme) | IC50 [1] | IC50 ([1]; Homo sapiens, NCI-H1373, 144 h) |
| --- | --- | --- | --- |
| C[C@@H](COCCC(=O)N1CCN2c3ncc(F)cc3N(C3CC3)C(=O)[C@@H]2C1)Nc1cn[nH]c(=O)c1C(F)(F)F [Compound 28A] | 0.00753 µM | 0.275 µM | – |
| C[C@@H](COCCC(=O)N1CCN2c3ncc(F)cc3N(C3CC3)C(=O)[C@@H]2C1)Nc1cn[nH]c(=O)c1C(F)(F)F [Compound 28B] | 0.00787 µM | 0.761 µM | – |
| C[C@@H](COC[C@@H](O)C(=O)N1CCN2c3ncc(Cl)cc3OCCC2C1)Nc1cn[nH]c(=O)c1C(F)(F)F (some centres unmarked) [Compound 64A] | 0.0015 µM | – | 0.208 µM |
| CC(=O)c1c(N[C@@H](C)COCCC(=O)N2CCN3c4ncc(C(F)(F)F)cc4OCC3C2)cn[nH]c1=O (some centres unmarked) [Compound 69] | 0.00392 µM | 0.483 µM | – |
| C[C@@H](COCCC(=O)N1CCN2c3ncc(Cl)cc3SCC[C@@H]2C1)Nc1cn[nH]c(=O)c1C(F)(F)F [Compound 73A] | 0.000769 µM | – | 0.0223 µM |
| C[C@@H](COCCC(=O)N1CCN2c3ncc(C(F)(F)F)cc3[C@@](C)(O)[C@@H]2C1)Nc1cn[nH]c(=O)c1C(F)(F)F [Compound 79A] | 0.00725 µM | – | 0.572 µM |
| C[C@@H](COCCC(=O)N1CCN2c3ncc(C(F)(F)F)cc3[C@](C)(O)[C@@H]2C1)Nc1cn[nH]c(=O)c1C(F)(F)F [Compound 79B] | 0.00467 µM | – | 0.341 µM |
| C[C@@H](COCCC(=O)N1CCN2c3ncc(C(F)(F)F)cc3[C@@](C)(O)[C@H]2C1)Nc1cn[nH]c(=O)c1C(F)(F)F [Compound 79C] | 0.00477 µM | – | 0.456 µM |
| C[C@@H](COCCC(=O)N1CCN2c3ncc(C(F)(F)F)cc3[C@](C)(O)[C@H]2C1)Nc1cn[nH]c(=O)c1C(F)(F)F [Compound 79D] | 0.00318 µM | – | 0.742 µM |
| C[C@@H](COCCC(=O)N1CCN2c3ncc(C(F)(F)F)cc3C(O)CC2C1)Nc1cn[nH]c(=O)c1C(F)(F)F (some centres unmarked) [Compound 80] | 0.000946 µM | 0.151 µM | – |
| C[C@H](COCCC(=O)N1CCN2c3ncc(Cl)cc3N(C)C(=O)[C@H]2C1)Nc1cn[nH]c(=O)c1C(F)(F)F [Compound 82B] | 0.000892 µM | – | 0.0216 µM |
| Cc1c(Cl)cnc2c1OCC[C@H]1CN(C(=O)CCOC[C@H](C)Oc3cn[nH]c(=O)c3C(F)(F)F)CCN21 [Compound 85B] | 0.00784 µM | – | 0.311 µM |
| C[C@@H](COCCC(=O)N1CCN2c3ncc(C(F)(F)F)cc3SCC[C@H]2C1)Oc1cn[nH]c(=O)c1C(F)(F)F [Compound 86B] | 0.0205 µM | – | 0.246 µM |
| CN1C(=O)[C@@H]2CN(C(=O)CCOC[C@@H]3CCN3c3cn[nH]c(=O)c3C(F)(F)F)CCN2c2ncc(Cl)cc21 [Compound 88A] | 0.000416 µM | – | 0.00217 µM |
| CN1C(=O)[C@H]2CN(C(=O)CCOC[C@@H]3CCN3c3cn[nH]c(=O)c3C(F)(F)F)CCN2c2ncc(Cl)cc21 [Compound 88B] | 0.000446 µM | – | 0.00294 µM |
| O=C(CCOC[C@@H]1CCN1c1cn[nH]c(=O)c1C(F)(F)F)N1CCN2c3ncc(C(F)(F)F)cc3OC[C@@H]2C1 [Compound 89A] | 0.000696 µM | – | 0.0106 µM |
| O=C(CCOC[C@@H]1CCN1c1cn[nH]c(=O)c1C(F)(F)F)N1CCN2c3ncc(C(F)(F)F)cc3OC[C@H]2C1 [Compound 89B] | 0.000658 µM | – | 0.00692 µM |
| O=C(CCOC[C@@H]1CCN1c1cn[nH]c(=O)c1C(F)(F)F)N1CCn2c(cc3cc(C(F)(F)F)cnc32)C1 [Compound 91] | 0.000496 µM | – | 0.0113 µM |

From patent US20240336629A1, “Tricyclic Derivatives Useful As PARP7 Inhibitors” (JACOBIO PHARMACEUTICALS CO., LTD., priority 2021, published 2024)
